Some test systems named below: LOX IMVI melanoma; TK-10 renal; MOLT-4 leukemia; OVCAR-8 ovarian; HOP-62 NSCLC; K-562 leukemia; SK-MEL-28 melanoma; A498 renal; NCI/ADR-RES ovarian; PC-3 prostate.
Common to all, as to test: NCI anticancer screen, dose series, 48 h

“And” between values parts separate entries of the source, which are not always exact repeats. Equal entries are not always repeated.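 Compound exposure: 48 hours, 5 concentrations, 96-well plates. The concentration for 50% growth inhibition is given as GI50. TGI is the concentration that stops growth completely.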 A value given as a limit tells only on which side of the number the result lay.

For the molecule `COC/C=C\COC`, the TGI in the assay on LOX IMVI melanoma, in the assay with TK-10 renal, in the assay with MOLT-4 leukemia, in the assay on OVCAR-8 ovarian, in the assay with HOP-62 NSCLC and in the assay with K-562 leukemia was greater than 100 µM in each case. Besides, the TGI in the assay with SK-MEL-28 melanoma is greater than 100 µM.
Take `O=c1/c(=C/c2ccccc2[N+](=O)[O-])sc2nc3ccccc3n12`: the TGI in the assay with LOX IMVI melanoma is 31.9 µM; with TK-10 renal, greater than 46.4 µM; in the assay with MOLT-4 leukemia it was greater than 46.4 µM; in the assay on OVCAR-8 ovarian, greater than 46.4 µM; with HOP-62 NSCLC it was greater than 46.4 µM; in the assay on K-562 leukemia, greater than 46.4 µM. The TGI was greater than 41.6 µM in the assay on A498 renal and greater than 46.4 µM with SK-MEL-28 melanoma.
`CC1/C=C/[C@@]2(C)CCC(C(C)(C)O)C2C(O)C[C@](C)(O)/C=C/C1` (stereo partly drawn): the TGI in the assay with LOX IMVI melanoma, with TK-10 renal, in the assay on MOLT-4 leukemia, with OVCAR-8 ovarian, with HOP-62 NSCLC and in the assay with K-562 leukemia was greater than 100 µM each time. For the same molecule, the TGI with A498 renal and in the assay on SK-MEL-28 melanoma was greater than 100 µM throughout.
Take `COc1ccc(-c2cs/c(=N\N=C\c3ccc(O)cc3O)n2/N=C/c2ccc(O)cc2O)cc1`: the GI50 is 1.76 µM in the assay with LOX IMVI melanoma; 2.46 µM in the assay on TK-10 renal; 1.79 µM in the assay on MOLT-4 leukemia; 2.47 µM in the assay on OVCAR-8 ovarian; 2.62 µM in the assay with K-562 leukemia; 2.02 µM with NCI/ADR-RES ovarian. The GI50 was 1.75 µM in the assay on A498 renal and 1.88 µM in the assay on SK-MEL-28 melanoma. The TGI in the assay with LOX IMVI melanoma is 3.68 µM; with TK-10 renal, 5.1 µM; in the assay on MOLT-4 leukemia, 5.05 µM; in the assay with OVCAR-8 ovarian, 6.63 µM; in the assay with K-562 leukemia, greater than 100 µM; in the assay on NCI/ADR-RES ovarian, 5.35 µM. Further, the TGI in the assay with A498 renal was determined as 3.81 µM; in the assay on SK-MEL-28 melanoma, 4.15 µM.
On to `C/C=C(/I)CBr`, for which the TGI was 36.2 µM in the assay on LOX IMVI melanoma; 55.9 µM in the assay with MOLT-4 leukemia; 45.4 µM in the assay on OVCAR-8 ovarian; 43.4 µM with HOP-62 NSCLC; greater than 100 µM in the assay with K-562 leukemia; 52.6 µM in the assay on SK-MEL-28 melanoma.
In the case of `COc1ccc(C(=O)O[C@H]2[C@@H]3C=CO[C@@H](OC4OC(CO)C(O)C(O)C4O)[C@@H]3[C@@]3(CO)O[C@@H]23)cc1O` (stereo partly drawn), the TGI in the assay with LOX IMVI melanoma, in the assay on TK-10 renal, with MOLT-4 leukemia, in the assay on OVCAR-8 ovarian, in the assay with HOP-62 NSCLC and with K-562 leukemia was greater than 100 µM throughout. Also, the TGI in the assay on A498 renal and with SK-MEL-28 melanoma was greater than 100 µM throughout.
Regarding `COc1ccc(NC(=O)CC2SC(=Nc3ccccc3C)NC2=O)c([N+](=O)[O-])c1` (stereo not drawn), the TGI with LOX IMVI melanoma, in the assay with TK-10 renal, in the assay on MOLT-4 leukemia, in the assay on OVCAR-8 ovarian, in the assay with HOP-62 NSCLC and in the assay with K-562 leukemia was greater than 100 µM each time. The TGI in the assay on SK-MEL-28 melanoma is greater than 100 µM.
Consider `CC(Oc1ccc2c(-c3ccccc3)cc(=O)oc2c1)C(=O)O` (stereo not drawn), for which the TGI with LOX IMVI melanoma, in the assay on TK-10 renal, in the assay with MOLT-4 leukemia, in the assay on OVCAR-8 ovarian, with HOP-62 NSCLC and with K-562 leukemia was greater than 100 µM in each case. The TGI with A498 renal and in the assay on SK-MEL-28 melanoma was greater than 100 µM in each case.
For `CC1=C[C@H]2c3c([nH]c4ccccc34)C(c3c[nH]c4ccccc34)[C@H]2CC1` (stereo partly drawn), the TGI in the assay on LOX IMVI melanoma came to 5.83 µM; in the assay with TK-10 renal it was 28.5 µM; in the assay on MOLT-4 leukemia, 5.89 µM; with OVCAR-8 ovarian, 28 µM; in the assay on K-562 leukemia, 12.7 µM; in the assay on A498 renal, 35.8 µM. Moreover, the TGI in the assay with SK-MEL-28 melanoma worked out at 26 µM.
`NC1=C(NC(=O)Cc2ccccc2F)C(=O)c2ccccc2C1=O`: the TGI with TK-10 renal is 69.7 µM; in the assay on MOLT-4 leukemia, greater than 100 µM; with OVCAR-8 ovarian, greater than 100 µM; in the assay with HOP-62 NSCLC it was 51 µM; in the assay on K-562 leukemia, greater than 100 µM; in the assay with SK-MEL-28 melanoma, greater than 100 µM.
With `CCOC(=O)C(=O)Nc1ccccc1C`, the TGI in the assay on LOX IMVI melanoma, with TK-10 renal, in the assay with MOLT-4 leukemia, in the assay on OVCAR-8 ovarian, with HOP-62 NSCLC and in the assay on K-562 leukemia was greater than 100 µM in each case. Moreover, the TGI in the assay on A498 renal and in the assay with SK-MEL-28 melanoma was greater than 100 µM each time.
In the case of `C#Cc1cccc(N2C(=O)c3c(c(-c4ccccc4)c(-c4ccc(Cc5ccc(-c6c(-c7ccccc7)c7c(c(-c8ccccc8)c6-c6ccccc6)C(=O)N(c6cccc(C#C)c6)C7=O)cc5)cc4)c(-c4ccccc4)c3-c3ccccc3)C2=O)c1`, the TGI is 53.3 µM in the assay with TK-10 renal; greater than 100 µM with MOLT-4 leukemia; greater than 100 µM in the assay with OVCAR-8 ovarian; greater than 100 µM with HOP-62 NSCLC; greater than 100 µM in the assay with K-562 leukemia; greater than 100 µM in the assay with SK-MEL-28 melanoma.
In the case of `CCOC(=O)C1=C(Nc2ccc(Cl)cc2Cl)OCC1=O`, the TGI in the assay with LOX IMVI melanoma, in the assay with TK-10 renal, with MOLT-4 leukemia, with OVCAR-8 ovarian, in the assay with HOP-62 NSCLC and with K-562 leukemia was greater than 100 µM in each case. In the assay with SK-MEL-28 melanoma, this molecule registered a TGI greater than 100 µM.
Consider `CCC(=O)c1c(NOC2OCC(OC(C)=O)C(OC(C)=O)C2OC(C)=O)nc(OC)n(C)c1=O` (stereo not drawn), for which the TGI in the assay with LOX IMVI melanoma, in the assay on TK-10 renal, in the assay with MOLT-4 leukemia, with OVCAR-8 ovarian, in the assay with HOP-62 NSCLC and in the assay on K-562 leukemia was greater than 100 µM each time. The TGI in the assay on A498 renal and in the assay with SK-MEL-28 melanoma was greater than 100 µM each time.
In the case of `CCCNC(=O)C1C(=O)C(=O)N(CCC)C1=O` (stereo not drawn), the TGI with LOX IMVI melanoma, in the assay with TK-10 renal, with MOLT-4 leukemia, with OVCAR-8 ovarian, with HOP-62 NSCLC and in the assay on K-562 leukemia was greater than 100 µM throughout. For the same molecule, the TGI in the assay with A498 renal and with SK-MEL-28 melanoma was greater than 100 µM each time.
In the case of `COc1ccc(S(=O)(=O)N2CCN(C(=O)c3ccc(-c4ccccc4)cc3)CC2C(=O)NO)cc1` (stereo not drawn), the GI50 was 1.83 µM and 12.1 µM in the assay on TK-10 renal; 15.9 µM in the assay on MOLT-4 leukemia; 2.01 µM and 17.9 µM in the assay with PC-3 prostate. The TGI with TK-10 renal was 7.33 µM and 58.5 µM; with MOLT-4 leukemia, 95.9 µM; in the assay on OVCAR-8 ovarian it was 12.5 µM and > 100 µM; in the assay on SK-MEL-28 melanoma, 12.5 µM and > 100 µM.
For `COc1ccc(NC(=O)/C(=C/c2ccccc2)C(C)=O)cc1`, the TGI is 27.8 µM with LOX IMVI melanoma; 37.4 µM with TK-10 renal; 32.6 µM in the assay on MOLT-4 leukemia; 51.5 µM in the assay with OVCAR-8 ovarian; 32.3 µM in the assay on HOP-62 NSCLC; greater than 100 µM with K-562 leukemia. Also, the TGI in the assay on A498 renal was determined as 36.7 µM; in the assay with SK-MEL-28 melanoma, 26.1 µM.

These data come from PubChem BioAssay (NCI).
